Experimental data taken from patent EP0038569A2, “Deazapurine nucleosides, formulations and preparation thereof” (THE WELLCOME FOUNDATION LIMITED, priority 1980, dated 1981).
Read-outs that look alike come from different tables or passages of the source.

What was measured:
[1] = Carrageenan Pleurisy Assay (CPA), acute anti-inflammatory activity; format: in vivo; details: po, read-out: ED50, dose required to reduce the 3 hour exudate volume by 50%
Source text: Following the procedure described by Vinegar et al., in Proc. Soc. […] There were 5 animals in each drug-treated group and the control group.

51Cr-labelled EL4 cells = assay: Assay of lymphocyte mediated cytolysis (LMC) in vitro; format: cell-based; details: for % lysis Reduction: in presence of ADA inhibitor EHNA 7.9 µM
Method: The test compounds were assayed in vitro by the method described in Science, (N.Y.), 187, 957 (1975). The order of addition of reagents was (1) cytotoxic lymphocytes; (2) tests compound dissolved in pyrogen-free saline; (3) ^51Cr-labelled EL4 cells. In those experiments where an adenosine deaminase (ADA) inhibitor was required erthro-9-(2-hydroxy-3-nonyl)adenine (EHNA) was added before step (2) to give a final concentration of 7.9 µM.

Solubility in water = format: physicochemical
[2] = system: chromium-labelled heterologous (sheep) erthrocytes target cells coated with mouse anti-sheep erythrocyte serum; assay: Antibody-Dependent Cellular Cytotoxicity assay in vitro; format: cell-based
Method: The title compound was tested in vitro in Antibody-Dependent Cellular Cytotoxicity assay [Perlmann, P. and Holm, G., Adv. Immunol., 11, 117, (1969)]. Mouse spleen cells from non-immunized animals served as the source of effector cells, assayed with chromium-labelled heterologous (sheep) erthrocytes target cells coated with mouse anti-sheep erythrocyte serum. The final concentration of the anti-serum in the incubation mixture was 1:66, the ratio of effector to target cells 25:1.

[3] = Duration of action and half life; details: in vivo
[4] = Toxicity in animal models: liver damage, therapeutic index
[5] = Antipyretic and analgesic activity; details: in vivo
[6] = system: lipoxgenase or cyclooxygenase pathway; assay: Inhibition of prostaglandin metabolism in vitro; format: biochemical
[7] = Mus musculus, EL4, read-out: % lysis Reduction

In the case of `C[C@]12CCC(=O)C=C1CC[C@@H]1[C@@H]2[C@@H](O)C[C@@]2(C)[C@H]1CC[C@]2(O)C(=O)CO` [Hydrocortisone], the ED50 ([1]; 3 h) is reported as 14 ± 10.2 mg/kg.
With `Nc1ncnc2c1ncn2[C@@H]1O[C@H](CO)[C@@H](O)[C@H]1O` [Adenosine] the “% lysis Reduction” value (51Cr-labelled EL4 cells; Conc. 9.4 µM) was 59% and the “% lysis Reduction” value (51Cr-labelled EL4 cells; Conc. 18.8 µM) was 59%.
In the case of `Nc1nccc2c1ncn2[C@H]1C[C@H](O)[C@@H](CO)O1` [4-amino-1-(2-deoxy-β-D-ribofuranosyl)-1H-imidazo-[4,5-c]-pyridine], the solubility in water (Solubility in water) is reported as “highly soluble in water”, the inhibition at 100 µM ([2]; 100 µM, 4 hours of incubation at 37 °C, effector to target cells 25:1, read-out: inhibition of target cell-specific chromium release) is reported as 83.2% and the inhibition at 3.1 µM ([2]; 4 h) is reported as 31.2%. For the same molecule, the inhibition at 6.2 µM ([2]; 4 h) was 42.1%, the inhibition at 12.5 µM ([2]; 4 h) was 55.9% and the inhibition at 25 µM ([2]; 4 h, Dose 25.0 μM) was 60.2%. The IC50 ([2]; dose-response study) was 6.2 to 12.5 µM, the duration of action [3] was “about 15 hours” and the half life [3] was “short”. For the same molecule, the liver damage ([4]; in the animal models used) was “does not cause liver damage”, the therapeutic index ([4]; in vivo) was “high” and the inhibition at 18.8 µM (51Cr-labelled EL4 cells; Mus musculus, EL4, Conc. 18.8 µM, read-out: % lysis Reduction) was 53%. The inhibition at 37.5 µM (51Cr-labelled EL4 cells; Mus musculus, EL4, Conc. 37.5 µM, read-out: % lysis Reduction) was 73%, the “inhibition of lymphocyte mediated cytolysis” value (51Cr-labelled EL4 cells; summary statement) was “potent inhibitor” and the ED50 ([1]; 3 hr. vol. p.o., mg/kg of body weight) was 12 mg/kg. The “analgesic activity per se” value [5] was “no analgesic activity”, the antipyretic activity [5] was “not antipyretic” and the “inhibition of prostaglandin metabolism” value [6] was “does not inhibit”.
For `C[C@]12C=CC(=O)C=C1CC[C@@H]1[C@@H]2[C@@H](O)C[C@@]2(C)[C@H]1CC[C@]2(O)C(=O)CO` [Prednisolone], the ED50 ([1]; 3 h) was 3 ± 0.5 mg/kg.
With `Nc1nc(F)nc2c1ncn2[C@@H]1O[C@H](CO)[C@@H](O)[C@H]1O` [2-Fluoro-adenosine] the inhibition at 1 µM (51Cr-labelled EL4 cells; [7]) was 48.9% and the inhibition at 2 µM (51Cr-labelled EL4 cells; [7]) was 60%.
With `Nc1nccc2c1ncn2[C@@H]1O[C@H](CO)[C@@H](O)[C@H]1O` [(4-amino-1-β-D-ribofur-anosyl-1H-imidazo-[4,5-c]-pyridine, reference compound] the inhibition at 3.1 µM ([2]; 4 h) was 52.3%, the inhibition at 6.2 µM ([2]; 4 h) was 64.8% and the inhibition at 12.5 µM ([2]; 4 h) was 66.4%.
With `CC(=O)Oc1ccccc1C(=O)O` [Aspirin] the ED50 ([1]; 3 h) was 28 ± 3.2 mg/kg.
In the case of `Nc1nc(Cl)nc2c1ncn2[C@@H]1O[C@H](CO)[C@@H](O)[C@H]1O` [2-Chloro-adenosine], the inhibition at 4.7 µM (51Cr-labelled EL4 cells; [7]) is reported as 62.2% and the inhibition at 9.4 µM (51Cr-labelled EL4 cells; [7]) is reported as 64.4%.
